# PubChem BioAssay (NCI)
#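 Each compound was tested at five concentrations against cells in 96-well plates for 48 hours. GI50 = concentration required for 50% inhibition of growth. TGI: total growth inhibition.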
# Assays:
# Test in all cases: NCI tumour cell line growth inhibition, 48 h
# 786-0 renal = system: 786-0 renal
# A549 NSCLC = system: A549 NSCLC
# ACHN renal = system: ACHN renal
# BT-549 breast = system: BT-549 breast
# CAKI-1 renal = system: CAKI-1 renal
# CCRF-CEM leukemia = system: CCRF-CEM leukemia
# COLO 205 colon = system: COLO 205 colon
# DU-145 prostate = system: DU-145 prostate
# EKVX NSCLC = system: EKVX NSCLC
# HCT-116 colon = system: HCT-116 colon
# HCT-15 colon = system: HCT-15 colon
# HOP-62 NSCLC = system: HOP-62 NSCLC
# HS 578T breast = system: HS 578T breast
# HT29 colon = system: HT29 colon
# IGROV1 ovarian = system: IGROV1 ovarian
# K-562 leukemia = system: K-562 leukemia
# KM12 colon = system: KM12 colon
# LOX IMVI melanoma = system: LOX IMVI melanoma
# M14 melanoma = system: M14 melanoma
# MCF7 breast = system: MCF7 breast
# MDA-MB-231 breast = system: MDA-MB-231 breast
# MDA-MB-435 = system: MDA-MB-435
# NCI-H226 lung = system: NCI-H226 lung
# NCI-H23 lung = system: NCI-H23 lung
# NCI-H460 lung = system: NCI-H460 lung
# NCI-H522 lung = system: NCI-H522 lung
# NCI/ADR-RES ovarian = system: NCI/ADR-RES ovarian
# OVCAR-3 ovarian = system: OVCAR-3 ovarian
# OVCAR-4 ovarian = system: OVCAR-4 ovarian
# OVCAR-5 ovarian = system: OVCAR-5 ovarian
# OVCAR-8 ovarian = system: OVCAR-8 ovarian
# PC-3 prostate = system: PC-3 prostate
# RPMI-8226 leukemia = system: RPMI-8226 leukemia
# SF-268 CNS = system: SF-268 CNS
# SF-295 CNS = system: SF-295 CNS
# SK-MEL-2 melanoma = system: SK-MEL-2 melanoma
# SK-MEL-28 melanoma = system: SK-MEL-28 melanoma
# SK-MEL-5 melanoma = system: SK-MEL-5 melanoma
# SK-OV-3 ovarian = system: SK-OV-3 ovarian
# SN12C renal = system: SN12C renal
# SNB-19 CNS = system: SNB-19 CNS
# SNB-75 CNS = system: SNB-75 CNS
# SW-620 colon = system: SW-620 colon
# T-47D breast = system: T-47D breast
# TK-10 renal = system: TK-10 renal
# U251 CNS = system: U251 CNS
# UACC-257 melanoma = system: UACC-257 melanoma
# UACC-62 melanoma = system: UACC-62 melanoma
# UO-31 renal = system: UO-31 renal
smiles,measurement,setting,value
CC(=O)c1ccc(Nc2cc(-n3nnc4ccccc43)nc3ccccc23)cc1,GI50,786-0 renal,11.9 µM
same,TGI,786-0 renal,30.1 µM
same,GI50,A549 NSCLC,32.3 µM
same,TGI,A549 NSCLC,> 100 µM
same,GI50,ACHN renal,13.2 µM
same,TGI,ACHN renal,26.9 µM
same,GI50,BT-549 breast,16 µM
same,TGI,BT-549 breast,66.2 µM
same,GI50,CAKI-1 renal,13.2 µM
same,TGI,CAKI-1 renal,35.2 µM
same,GI50,CCRF-CEM leukemia,5.18 µM
same,TGI,CCRF-CEM leukemia,> 100 µM
same,GI50,COLO 205 colon,30.6 µM
same,TGI,COLO 205 colon,> 100 µM
same,GI50,DU-145 prostate,14.6 µM
same,TGI,DU-145 prostate,82 µM
same,GI50,EKVX NSCLC,9.41 µM
same,TGI,EKVX NSCLC,67.4 µM
same,GI50,HCT-116 colon,32.9 µM
same,TGI,HCT-116 colon,> 100 µM
same,GI50,HCT-15 colon,> 100 µM
same,TGI,HCT-15 colon,> 100 µM
same,GI50,HOP-62 NSCLC,4.51 µM
same,TGI,HOP-62 NSCLC,18.2 µM
same,GI50,HS 578T breast,9.02 µM
same,TGI,HS 578T breast,28.8 µM
same,GI50,HT29 colon,12.9 µM
same,TGI,HT29 colon,> 100 µM
same,GI50,IGROV1 ovarian,55.7 µM
same,TGI,IGROV1 ovarian,> 100 µM
same,GI50,K-562 leukemia,> 100 µM
same,TGI,K-562 leukemia,> 100 µM
same,GI50,KM12 colon,4.16 µM
same,TGI,KM12 colon,25.6 µM
same,GI50,LOX IMVI melanoma,13.4 µM
same,TGI,LOX IMVI melanoma,> 100 µM
same,GI50,M14 melanoma,10.9 µM
same,TGI,M14 melanoma,44.6 µM
same,GI50,MCF7 breast,36.3 µM
same,TGI,MCF7 breast,> 100 µM
same,GI50,MDA-MB-231 breast,4.41 µM
same,TGI,MDA-MB-231 breast,35.7 µM
same,GI50,MDA-MB-435,19.7 µM
same,TGI,MDA-MB-435,94.6 µM
same,GI50,NCI-H226 lung,14.8 µM
same,TGI,NCI-H226 lung,59.4 µM
same,GI50,NCI-H23 lung,15.8 µM
same,TGI,NCI-H23 lung,72.6 µM
same,GI50,NCI-H460 lung,29.1 µM
same,TGI,NCI-H460 lung,> 100 µM
same,GI50,NCI-H522 lung,35.4 µM
same,TGI,NCI-H522 lung,> 100 µM
same,GI50,NCI/ADR-RES ovarian,12 µM
same,TGI,NCI/ADR-RES ovarian,46 µM
same,GI50,OVCAR-3 ovarian,14 µM
same,TGI,OVCAR-3 ovarian,37.5 µM
same,GI50,OVCAR-4 ovarian,10.7 µM
same,TGI,OVCAR-4 ovarian,61.9 µM
same,GI50,OVCAR-5 ovarian,26.2 µM
same,TGI,OVCAR-5 ovarian,> 100 µM
same,GI50,OVCAR-8 ovarian,7.83 µM
same,TGI,OVCAR-8 ovarian,43.4 µM
same,GI50,PC-3 prostate,13.9 µM
same,TGI,PC-3 prostate,72.4 µM
same,GI50,RPMI-8226 leukemia,2.5 µM
same,TGI,RPMI-8226 leukemia,14 µM
same,GI50,SF-268 CNS,25.1 µM
same,TGI,SF-268 CNS,> 100 µM
same,GI50,SF-295 CNS,4.96 µM
same,TGI,SF-295 CNS,13.6 µM
same,GI50,SK-MEL-2 melanoma,27.6 µM
same,TGI,SK-MEL-2 melanoma,> 100 µM
same,GI50,SK-MEL-28 melanoma,15.5 µM
same,TGI,SK-MEL-28 melanoma,> 100 µM
same,GI50,SK-MEL-5 melanoma,26.6 µM
same,TGI,SK-MEL-5 melanoma,75.4 µM
same,GI50,SK-OV-3 ovarian,20.5 µM
same,TGI,SK-OV-3 ovarian,43.4 µM
same,GI50,SN12C renal,6.24 µM
same,TGI,SN12C renal,35.4 µM
same,GI50,SNB-19 CNS,47.6 µM
same,TGI,SNB-19 CNS,> 100 µM
same,GI50,SNB-75 CNS,19.6 µM
same,TGI,SNB-75 CNS,60.5 µM
same,GI50,SW-620 colon,> 100 µM
same,TGI,SW-620 colon,> 100 µM
same,GI50,T-47D breast,18.9 µM
same,TGI,T-47D breast,87.1 µM
same,GI50,TK-10 renal,9.46 µM
same,TGI,TK-10 renal,24.3 µM
same,GI50,U251 CNS,14.4 µM
same,TGI,U251 CNS,44.1 µM
same,GI50,UACC-257 melanoma,45 µM
same,TGI,UACC-257 melanoma,> 100 µM
same,GI50,UACC-62 melanoma,14.5 µM
same,TGI,UACC-62 melanoma,62.8 µM
same,GI50,UO-31 renal,23 µM
same,TGI,UO-31 renal,> 100 µM
